Read-outs that look alike come from different tables or passages of the source.
Assay: Tigecycline plasma PK and % F after PO enteric-coated capsule in dogs
Assay type: in vivo, Beagle dogs
Conditions: female, beagle, dog, plasma, po; for concentration at 2 hr / concentration at 3 hr / concentration at 4 hr / concentration at 5 hr / concentration at 6 hr / concentration at 8 hr / concentration at 10 hr / concentration at 24 hr: PO 30 mg unformulated enteric-coated capsule; for concentration at 0 min: Time (min) 0.0; for concentration at 0.3 min: Time (min) 0.3; for concentration at 24 min: Time (min) 24.0; for bioavailability: read-out: % F
Method: Adult beagle dogs weighing approximately 9 to 15 kg were used in the study. […] Room temperature was set to be maintained between approximately 20±5° C. Relative humidity was monitored but not controlled.
TEKLAD™ Certified Canine Diet was provided once daily in amounts (˜400 grams) appropriate for the size and age of the animals. Tap water was available ad libitum via automatic watering device or water bowls.
Oral dosing of enteric-coated capsules was accomplished by administering them to the back of the dog's mouth, followed by a chase of 5 mL water to ensure swallowing.
Water was provided ad libitum. […] Subsequently, each group of animals was dosed based on the protocol, i.e. either IV, or PO by capsule.
Minocycline (VWR international) was used as an internal standard. Sample processing/clean-up of plasma samples was carried out offline by protein precipitation with acidified acetonitrile using 0.5% trifluoroacetic acid (TFA).
The HPLC system consisted of Shimadzu SIL-HTc HPLC system equipped with dual Shimadzu LC-10ADvp isopumps, a Shimadzu CTO-10ASvp column temperature controller and a Shimadzu SPD-10Avp variable wavelength detector. […] Mobile phase A consisted of 23 mM phosphate buffer pH 2.5 with 4 mM 1-octanesulfonic acid, while mobile phase B consisting of 90% acetonitrile, 10% water, with 2 mM 1-octanesulfonic acid. […] The total runtime was 18 minutes per sample. The mobile phase flow rate was 1.2 mL/min. Detection was performed using the SPD-10Avp variable wavelength detector set at 350 nm, with a sensitivity of 0.001 aufs.
The samples were then centrifuged under refrigeration at 13 k rpm for 5 minutes. The supernatant was taken and the liquid removed to dryness under nitrogen in a turbovap. The dried extract was reconstituted in 60 μL of mobile phase A and the suspension was further centrifuged at 5 k rpm for 5 minutes to pellet any insoluble matter. The resulting supernatant was then injected onto the LC.
The unknown concentration in dog plasma samples was determined by interpolation of the peak area ratios of analyte:internal standard versus the ratio of their nominal concentrations into the regression line obtained from calibration standards spiked in pooled dog plasma. No regression weighting was used for the calculations. […] The calibration curve covered the range of 0.05 μg/mL to 5 μg/mL. […]
The capsules were enterically coated using a standard preclinical protocol to 10% weight gain. Two studies were conducted.

[1] = 30 mg, Tigecycline Plasma Concentration, SC430, individual dogs
[2] = 30 mg, Tigecycline Plasma Concentration, SC430, mean
[3] = 30 mg, Tigecycline Plasma Concentration, PO 30 mg enteric-coated capsule with 500 mg CA and 100 mg LLC, SC430, individual dogs
[4] = 30 mg, Tigecycline Plasma Concentration, PO 30 mg enteric-coated capsule with 500 mg CA and 100 mg LLC, SC430, mean

In the case of `CN(C)c1cc(NC(=O)CNC(C)(C)C)c(O)c2c1C[C@H]1C[C@H]3[C@H](N(C)C)C(O)=C(C(N)=O)C(=O)[C@@]3(O)C(O)=C1C2=O` [Tigecycline], the concentration at 2 hr [1] is reported as 0 ng/mL, the concentration at 2 hr [2] is reported as 0 ng/mL and the concentration at 3 hr [1] is reported as 0 ng/mL. For the same molecule, the concentration at 3 hr [2] was 0 ng/mL, the concentration at 4 hr [1] was 0 ng/mL and the concentration at 4 hr [2] was 0 ng/mL. It also gave a concentration at 5 hr [1] of 0 ng/mL, a concentration at 5 hr [2] of 0 ng/mL and a concentration at 6 hr [1] of 0 ng/mL. It also gave a concentration at 6 hr [2] of 0 ng/mL, a concentration at 8 hr [1] of 0 ng/mL and a concentration at 8 hr [2] of 0 ng/mL. The concentration at 10 hr [1] was 0 ng/mL, the concentration at 10 hr [2] was 0 ng/mL and the concentration at 0 min [3] was 0 ng/mL. The concentration at 0 min [4] was 0 ng/mL, the concentration at 0.3 min [3] was 0 ng/mL and the concentration at 0.3 min [4] was 0 ng/mL. It also gave a concentration at 0.7 min (30 mg, Tigecycline Plasma Concentration, Time (min) 0.7, PO 30 mg enteric-coated capsule with 500 mg CA and 100 mg LLC, SC430, mean) of 26.4 ng/mL, a concentration at 1 min (30 mg, Tigecycline Plasma Concentration, Time (min) 1.0, PO 30 mg enteric-coated capsule with 500 mg CA and 100 mg LLC, SC430, mean) of 49 ng/mL and a concentration at […] (30 mg, Tigecycline Plasma Concentration, Time (min) 1.3, PO 30 mg enteric-coated capsule with 500 mg CA and 100 mg LLC, SC430, mean) of 51.2 ng/mL. For the same molecule, the concentration at […] (30 mg, Tigecycline Plasma Concentration, Time (min) 1.7, PO 30 mg enteric-coated capsule with 500 mg CA and 100 mg LLC, SC430, mean) was 63.6 ng/mL, the concentration at 2 min (30 mg, Tigecycline Plasma Concentration, Time (min) 2.0, PO 30 mg enteric-coated capsule with 500 mg CA and 100 mg LLC, SC430, mean) was 83.5 ng/mL and the concentration at […] (30 mg, Tigecycline Plasma Concentration, Time (min) 2.3, PO 30 mg enteric-coated capsule with 500 mg CA and 100 mg LLC, SC430, mean) was 72.1 ng/mL. For the same molecule, the concentration at […] (30 mg, Tigecycline Plasma Concentration, Time (min) 2.7, PO 30 mg enteric-coated capsule with 500 mg CA and 100 mg LLC, SC430, mean) was 59.1 ng/mL, the concentration at 3 min (30 mg, Tigecycline Plasma Concentration, Time (min) 3.0, PO 30 mg enteric-coated capsule with 500 mg CA and 100 mg LLC, SC430, mean) was 49.9 ng/mL and the concentration at […] (30 mg, Tigecycline Plasma Concentration, Time (min) 3.3, PO 30 mg enteric-coated capsule with 500 mg CA and 100 mg LLC, SC430, mean) was 42.4 ng/mL. It also gave a concentration at […] (30 mg, Tigecycline Plasma Concentration, Time (min) 3.7, PO 30 mg enteric-coated capsule with 500 mg CA and 100 mg LLC, SC430, mean) of 40.6 ng/mL, a concentration at 4 min (30 mg, Tigecycline Plasma Concentration, Time (min) 4.0, PO 30 mg enteric-coated capsule with 500 mg CA and 100 mg LLC, SC430, mean) of 36.6 ng/mL and a concentration at […] (30 mg, Tigecycline Plasma Concentration, Time (min) 4.5, PO 30 mg enteric-coated capsule with 500 mg CA and 100 mg LLC, SC430, mean) of 33.5 ng/mL. For the same molecule, the concentration at 5 min (30 mg, Tigecycline Plasma Concentration, Time (min) 5.0, PO 30 mg enteric-coated capsule with 500 mg CA and 100 mg LLC, SC430, mean) was 31.8 ng/mL, the concentration at […] (30 mg, Tigecycline Plasma Concentration, Time (min) 5.5, PO 30 mg enteric-coated capsule with 500 mg CA and 100 mg LLC, SC430, mean) was 37.9 ng/mL and the concentration at 6 min (30 mg, Tigecycline Plasma Concentration, Time (min) 6.0, PO 30 mg enteric-coated capsule with 500 mg CA and 100 mg LLC, SC430, mean) was 21.2 ng/mL. The concentration at 8 min (30 mg, Tigecycline Plasma Concentration, Time (min) 8.0, PO 30 mg enteric-coated capsule with 500 mg CA and 100 mg LLC, SC430, mean) was 7.27 ng/mL, the concentration at 10 min (30 mg, Tigecycline Plasma Concentration, Time (min) 10.0, PO 30 mg enteric-coated capsule with 500 mg CA and 100 mg LLC, SC430, mean) was 2.58 ng/mL and the concentration at 24 min [3] was 0 ng/mL. For the same molecule, the concentration at 24 min [4] was 0 ng/mL, the concentration at 24 hr [1] was 0 ng/mL and the concentration at 24 hr [2] was 0 ng/mL. The Cmax (30 mg, target dose 30 mg, enterically coated capsule, excluding animal 5256, read-out: Observed Mean Cmax) was 121 ng/mL, the AUC(0-t) (30 mg, target dose 30 mg, enterically coated capsule, time scale adjusted to 4 hours, excluding animal 5256, read-out: Observed AUC(0-t)) was 214 ng·h/mL and the bioavailability (30 mg) was 14.9%. It also gave an AUC(0-t) (30 mg, read-out: AUC(0-t)) of 367 ng·h/mL, a Cmax (30 mg, read-out: Cmax) of 121 ng/mL and a bioavailability (45 mg, 45 mg Formulated (500 mg CA, 100 mg LLC) enteric coated capsule, Study 2 (SC430), mean (% CV)) of 15.5%. It also gave an AUC(0-t) (45 mg, 45 mg Formulated (500 mg CA, 100 mg LLC) enteric coated capsule, Study 2 (SC430), mean (% CV), read-out: AUC(0-t)) of 574 ng·h/mL and a Cmax (45 mg, 45 mg Formulated (500 mg CA, 100 mg LLC) enteric coated capsule, Study 2 (SC430), mean (% CV), read-out: Cmax) of 177 ng/mL.

Source: patent publication US9526785B2, “Pharmaceuticals for oral delivery” (Enteris BioPharma, Inc., priority 2013, dated 2016)
